The target in assay [1] is human A2b adenosine receptor (Homo sapiens (Human), UniProt P29275). Briefly: A2b radioligand filtration binding assay. Conditions: membranes from HEK293 cells expressing human A2b receptor. A digest of the protocol:
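Membranes from HEK293 cells expressing human A2b receptor preincubated with compound 15 to 30 min at room temperature, then tritiated proprietary A2b antagonist (diluted to 14 nM before addition) added in PBS pH 7.4 for 60 min at room temperature. Bound radioactivity by filtration and scintillation; non-specific binding with 20 μM NECA; IC50 by 4-parameter logistic fit.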

Assay [2] deals with human A2a adenosine receptor (Homo sapiens (Human), UniProt P29274). Description: A2a receptor affinity radioligand binding assay ([3H] SCH58261). Conditions: membranes from HEK293 or CHO cells expressing human A2a receptor. The essentials: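 Membranes from HEK293 or CHO cells expressing human A2a were preincubated 15–30 min at room temperature with compound, then incubated 60 min at room temperature with [3H]SCH58261 (diluted to 4 nM) in 50 mM Tris pH 7.4, 10 mM MgCl2, 0.005% Tween20. Bound radioactivity was collected by filtration; nonspecific binding defined with 1 μM ZM241385; IC50 from 4-parameter logistic fit.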
Chain of human A2a adenosine receptor (P29274 whole entry): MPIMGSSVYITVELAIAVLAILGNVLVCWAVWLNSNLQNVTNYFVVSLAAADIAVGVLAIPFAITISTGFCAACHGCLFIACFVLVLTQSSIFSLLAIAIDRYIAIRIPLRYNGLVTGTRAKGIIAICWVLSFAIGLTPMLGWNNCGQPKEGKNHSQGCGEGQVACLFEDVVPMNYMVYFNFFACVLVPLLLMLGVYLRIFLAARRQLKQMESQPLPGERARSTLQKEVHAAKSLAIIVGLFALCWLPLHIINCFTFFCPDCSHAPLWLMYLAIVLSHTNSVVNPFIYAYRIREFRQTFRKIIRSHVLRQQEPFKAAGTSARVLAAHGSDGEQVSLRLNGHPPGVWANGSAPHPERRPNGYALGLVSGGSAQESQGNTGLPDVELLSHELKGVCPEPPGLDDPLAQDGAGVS

Chain of human A2b adenosine receptor (P29275 whole entry): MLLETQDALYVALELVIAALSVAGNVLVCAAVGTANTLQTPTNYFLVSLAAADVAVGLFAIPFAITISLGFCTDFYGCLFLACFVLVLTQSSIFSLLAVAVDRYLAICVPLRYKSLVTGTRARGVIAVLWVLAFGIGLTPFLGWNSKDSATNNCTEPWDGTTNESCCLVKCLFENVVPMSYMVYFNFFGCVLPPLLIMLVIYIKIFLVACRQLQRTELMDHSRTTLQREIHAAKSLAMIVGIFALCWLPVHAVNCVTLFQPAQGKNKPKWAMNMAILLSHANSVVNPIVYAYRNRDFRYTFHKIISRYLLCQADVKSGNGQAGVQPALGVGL

As to `COc1cc2nc(N)n3nc([C@@H]4CCCN(c5cnn(CC(F)(F)F)c5)C4)nc3c2cc1F` [Example 5, (R)-9-fluoro-8-methoxy-2-(1-(1-(2,2,2-trifluoroethyl)-1H-pyrazol-4-yl)piperidin-3-yl)[1,2,4]triazolo[1,5-c]quinazolin-5-amine], the results for the IC50 in assay [1] and in assay [2] were 1.6 nM and 3.3 nM, respectively.
As for `COc1cc2nc(N)n3nc([C@@H]4CCCN(c5cn(C)nn5)C4)nc3c2cc1F` [Example 6, (R)-9-fluoro-8-methoxy-2-(1-(1-methyl-1H-1,2,3-triazol-4-yl)piperidin-3-yl)-[1,2,4]triazolo[1,5-c]quinazolin-5-amine], the figures for the IC50 in assay [1] and in assay [2] were 85.9 nM and 2 nM, respectively.
The corresponding values for `COc1cc2nc(N)n3nc([C@@H]4CCCN(c5cnn(CC(C)(C)O)c5)C4)nc3c2cc1F` [Example 7, (R)-1-(4-(3-(5-amino-9-fluoro-8-methoxy-[1,2,4]triazolo[1,5-c]quinazolin-2-yl)piperidin-l-yl)-1H-pyrazol-1-yl)-2-methylpropan-2-ol] are 104 nM and 3.7 nM.
Take `COc1cc2nc(N)n3nc([C@@H]4CCCN(c5cnn(CC(C)(C)O)c5C)C4)nc3c2cc1F` [Example 8, (R)-1-(4-(3-(5-amino-9-fluoro-8-methoxy-[1,2,4]triazolo [1,5-c]quinazolin-2-yl)piperidin-l-yl)-5-methyl-1H-pyrazol-1-yl)-2-methylpropan-2-ol]: the IC50 in assay [1] is 149 nM; in assay [2] it was 4.5 nM.
Consider `COc1cc2nc(N)n3nc([C@@H]4CCCN(c5cn(CC(C)(C)O)nc5C)C4)nc3c2cc1F` [Example 9, (R)-1-(4-(3-(5-amino-9-fluoro-8-methoxy-[1,2,4]triazolo [1,5-c]quinazolin-2-yl)piperidin-1-yl)-3-methyl-1H-pyrazol-1-yl)-2-methylpropan-2-ol], for which the IC50 in assay [1] is 136 nM; in assay [2], 0.5 nM.
As to `COc1cc2nc(N)n3nc([C@@H]4CCCN(c5cnn(CC6(O)CCC6)c5)C4)nc3c2cc1F` [Example 10, (R)-1-((4-(3-(5-amino-9-fluoro-8-methoxy-[1,2,4]triazolo [1,5-c]quinazolin-2-yl)piperidin-1-yl)-1H-pyrazol-1-yl)methyl)cyclobutan-1-ol], the IC50 in assay [1] turned out to be 63.4 nM; in assay [2], 3.5 nM.
On to `COc1cc2nc(N)n3nc([C@@H]4CCCN(c5cn(C(C)(C)CO)nc5C)C4)nc3c2cc1F` [Example 11, (R)-2-(4-(3-(5-amino-9-fluoro-8-methoxy-[1,2,4]triazolo[1,5-c]quinazolin-2-yl)piperidin-1-yl)-3-methyl-1H-pyrazol-1-yl)-2-methylpropan-1-ol], for which the results for the IC50 in assay [1] and in assay [2] were 56 nM and 0.5 nM, respectively.
Consider `COc1cc2nc(N)n3nc([C@@H]4CCCN(c5cnn([C@H]6C[C@@](C)(O)C6)c5)C4)nc3c2cc1F` [Example 14, (1s,3s)-3-(4-((R)-3-(5-amino-9-fluoro-8-methoxy-[1,2,4]triazolo[1,5-c]quinazolin-2-yl)piperidin-l-yl)-1H-pyrazol-1-yl)-methylcyclobutan-1-ol], for which the IC50 in assay [1] was 225 nM; in assay [2], 3 nM.
The like results for `COc1cc2nc(N)n3nc([C@@H]4CCCN(c5cnn(CC6(C)COC6)c5)C4)nc3c2cc1F` [Example 15, (R)-9-fluoro-8-methoxy-2-(1-(1-((3-methyloxetan-3-yl)methyl)-1H-pyrazol-4-yl)piperidin-3-yl)[1,2,4] triazolo[1,5-c]quinazolin-5-amine] were, in that order, 905 nM and 38.4 nM.
Regarding `COc1cc2nc(N)n3nc([C@@H]4CCCN(c5cnn(C6CCOCC6)c5C)C4)nc3c2cc1F` [Example 16, (R)-9-fluoro-8-methoxy-2-(1-(5-methyl-1-(tetrahydro-2H-pyran-4-yl)-1H-pyrazol-4-yl)piperidin-3-yl)-[1,2,4]triazolo[1,5-c]quinazoliu-5-amine], the results for the half-maximal inhibitory concentration (IC50) in assay [1] and in assay [2] were 426 nM and 0.8 nM, respectively.
The like results for `COc1cc2nc(N)n3nc([C@@H]4CCCN(c5cn(C6CCOCC6)nc5C)C4)nc3c2cc1F` [Example 17, (R)-9-fluoro-8-methoxy-2-(1-(3-methyl-1-(tetrahydro-2H-pyran-4-yl)-1H-pyrazol-4-yl)piperidin-3-yl) [1,2,4]triazolo[1,5-c]quinazolin-5-amine] were, in that order, 434 nM and 1.7 nM.
The like results for `COc1cc2nc(N)n3nc([C@@H]4CCCN(c5cnn(C6CCOCC6)c5C(F)F)C4)nc3c2cc1F` [Example 18, (R)-2-(1-(5-(difluoromethyl)-1-(tettahydro-2H-pyran-4-yl)-1H-pyrazol-4-yl)piperidin-3-yl)-9-fluoro-8-methoxy-[1,2,4]triazolo[1,5-c]quinazolin-5-amine] were, in that order, 13.5 nM and 0.7 nM.
In the case of `COc1cc2nc(N)n3nc([C@@H]4CCCN(c5cn(C6CCOCC6)nc5C(F)F)C4)nc3c2cc1F` [Example 19, (R)-2-(1-(3-(difluoromethyl)-1-(tetrahydro-2H-pyran-4-yl)-1H-pyrazol-4-yl)piperidin-3-yl)-9-fluoro-8-methoxy-[1,2,4]triazolo[1,5-c]quinazolin-5-amine], the IC50 in assay [1] is 87.3 nM; in assay [2], 0.7 nM.
As for `CCn1cc(N2CCC[C@@H](c3nc4c5cc(F)c(OC)cc5nc(N)n4n3)C2)c(CO)n1` [Example 20, (R)-(4-(3-(5-amino-9-fluoro-8-methoxy-[1,2,4]triazolo[1,5-c]quinazolin-2-yl)piperidin-1-yl)-ethyl-1H-pyrazol-3-yl)methanol], the IC50 in assay [1] stood at 163 nM; in assay [2], 5.8 nM.
Take `COc1cc2nc(N)n3nc([C@@H]4CCCN(c5cn(CC(C)(C)O)nc5C5CC5)C4)nc3c2cc1F` [Example 21, (R)-1-(4-(3-(5-amino-9-fluoro-8-methoxy-[1,2,4]triazolo[1,5-c]quinazolin-2-yl)piperidin-1-yl)-3-cyclopropyl-1H-pyrazol-1-yl)-2-methylpropan-2-ol]: the IC50 in assay [1] amounted to 515 nM; in assay [2], 0.3 nM.
The like results for `COc1cc2nc(N)n3nc([C@@H]4CCCN(c5ccc(OC(F)F)nc5)C4)nc3c2cc1F` [Example 22, (R)-2-(1-(6-(difluoromethoxy)pyridin-3-yl)piperidin-3-yl)-9-fluoro-8-methoxy[1,2,4]triazolo[1,5-c]quinazolin-5-amine] were, in that order, 27.6 nM and 8.6 nM.
Regarding `COc1cc2nc(N)n3nc([C@@H]4CCCN(c5ccc(OC(C)C)nc5)C4)nc3c2cc1F` [Example 23, (R)-9-fluoro-2-(1-(6-isopropoxypyridin-3-yl)piperidin-3-yl)-8-methoxy-[1,2,4]triazolo[1,5-c]quinazolin-5-amine], the figures for the IC50 in assay [1] and in assay [2] were 15.9 nM and 2 nM, respectively.
The like results for `COc1cc2nc(N)n3nc([C@@H]4CCCN(c5cnc(OC(F)F)c(C)c5)C4)nc3c2cc1F` [Example 24, (R)-2-(1-(6-(difluoromethoxy)-5-methylpyridin-3-yl)piperidin-3-yl)-9-fluoro-8-methoxy-[1,2,4]triazolo[1,5-c]quinazolin-5-amine] were, in that order, 480 nM and 13.8 nM.
Regarding `COc1cc2nc(N)n3nc([C@@H]4CCCN(c5cc(C)c(=O)n(C(F)F)c5)C4)nc3c2cc1F` [Example 25, (R)-5-(3-(5-amino-9-fluoro-8-methoxy-[1,2,4]triazolo[1,5-c]quinazolin-2-yl)piperidin-1-yl)-1-(difluoromethyl)-3-methylpyridin-2(1H)-one], the IC50 in assay [1] was 61.7 nM; in assay [2], 0.6 nM.
For the molecule `COc1ccc(N2CCC[C@@H](c3nc4c5cc(F)c(OC)cc5nc(N)n4n3)C2)cn1` [Example 26, (R)-9-fluoro-8-methoxy-2-(1-(6-methoxypyridin-3-yl)piperidin-3-yl)-[1,2,4]triazolo[1,5-c]quinazolin-5-amine], the figures for the IC50 in assay [1] and in assay [2] were 48.7 nM and 3.9 nM, respectively.
The corresponding values for `COc1cc2nc(N)n3nc([C@@H]4CCCN(c5nc(C)n(CC(C)(C)O)n5)C4)nc3c2cc1F` [Example 27, (R)-1-(3-(3-(5-amino-9-fluoro-8-methoxy-[1,2,4]triazolo[1,5-c]quinazolin-2-yl)piperidin-1-yl)-5-methyl-1H-1,2,4-triazol-1-yl)-2-methylpropan-2-ol] are 861 nM and 1.8 nM.
As to `COc1cc(F)cc2c1nc(N)n1nc([C@@H]3CCCN(c4cnn(CC(C)(C)O)c4)C3)nc21` [Example 28, (R)-1-(4-(3-(5-amino-9-fluoro-7-methoxy-[1,2,4]triazolo [1,5-c]quinazolin-2-yl)piperidin-1-yl)-1H-pyrazol-1-yl)-2-methylpropan-2-ol], the 50% inhibitory concentration (IC50) in assay [1] came out at 76.3 nM; in assay [2] it was 2.8 nM.
The like results for `COc1cc(F)cc2c1nc(N)n1nc([C@@H]3CCCN(c4cnn(CC(C)(C)O)c4C)C3)nc21` [Example 29, (R)-1-(4-(3-(5-amino-9-fluoro-7-methoxy-[1,2,4]triazolo [1,5-c]quinazolin-2-yl)piperidin-1-yl)-5-methyl-1H-pyrazol-1-yl)-2-methylpropan-2-ol] were, in that order, 301 nM and 1.5 nM.
Take `COc1cc(F)cc2c1nc(N)n1nc([C@@H]3CCCN(c4cn(CC(C)(C)O)nc4C)C3)nc21` [Example 30, (R)-1-(4-(3-(5-amino-9-fluoro-7-methoxy-[1,2,4]triazolo [1,5-c]quinazolin-2-yl)piperidin-l-yl)-3-methyl-1H-pyrazol-1-yl)-2-methylpropan-2-ol]: the IC50 in assay [1] came out at 97.9 nM; in assay [2], 0.4 nM.

The record behind these values is patent publication US11312719B2, “9-substituted amino triazolo quinazoline derivatives as adenosine receptor antagonists, pharmaceutical compositions and their use” (Merck Sharp & Dohme Corp., priority 2018, dated 2022).
